Assays:
[1] = Physical characteristics of LNPs (particle size, PDI); format: physicochemical; details: for PDI DNA / Particle Size (nm) DNA: LNP with Fluc DNA, compound/DOPE/Cholesterol/DMG-PEG2000 38/50/10.0/2.0, Lipid:DNA 45:1 (w/w); for PDI RNA / Particle Size (nm) RNA: LNP with Fluc mRNA, compound/DOPE/Cholesterol/DMG-PEG2000 41.44/45.85/10/2.7, Lipid:RNA 40:1 (w/w)
Method: LNP compositions of the present disclosure comprising exemplary compounds of Formula (I) were prepared by combining various percentages of an exemplary compound of Formula (I), the phospholipid DOPE, the structural lipid cholesterol (Chol) and 1,2-dimyristoyl-sn-glycerol methoxypolyethylene glycol (DMG-PEG2000; Avanti Polar Lipids, Alabaster, Alabama, USA).
Individual 25 mg/ml stock solutions were prepared by solubilizing the lipids in 200-proof HPLC-grade ethanol and stock solutions were stored at −80° C. until formulated. At the time of formulation, the lipid stock solutions were briefly allowed to equilibrate to room temp and then placed on a hot plate maintained at a temperature range of 50-55° C.
A 1 mg/ml solution of the desired mRNA or DNA to be incorporated into the LNPs was added to 150 mM sodium acetate buffer (pH 5.2) to form a stock solution and kept on ice. The aqueous mRNA or DNA was then added to the lipids as shown in Table 4 or 5 and hand-mixed vigorously with a single channel pipettor.
The resultant mRNA or DNA LNP compositions were then transferred to a Repligen Float-A-Lyzer dialysis device-having a molecular weight cut off (MWCO) of 8-10 kDa (Spectrum Chemical Mfg. Corp, CA, USA) and processed by dialysis against phosphate buffered saline (PBS) (dialysate: dialysis buffer volume at least 1:200 v/v), pH 7.4 overnight at 4° C. (or alternatively room temperature for at least 4 hours), to remove the 25% ethanol and achieve a complete buffer exchange. In some experiments the LNPs were further concentrated by in an Amicon® Ultra-4 centrifugal filter unit, MWCO-30 kDa (Millipore Sigma, USA) spun at ˜4100 x g in an ultracentrifuge. The mRNA and DNA LNPs were then stored at 4° C. until further use.
LNP compositions of the present disclosure comprising mRNA or DNA encoding firefly luciferase (hereafter “Fluc”; TriLink) and COMPOUNDS 5-49 were prepared as described in Example 61 by combining one of COMPOUNDS 5-49, the phospholipid DOPE, the structural lipid cholesterol (Chol) and 1,2-dimyristoyl-sn-glycerol methoxypolyethylene glycol (DMG-PEG2000) in the percentages presented in Tables 6 and 7:
The physical characteristics of the resulting LNPs were analyzed.
A 1 mg/ml solution of the 5′-CleanCap--fLuciferase mRNA (TriLink Biotech) to be incorporated into the LNPs was added to 150 mM sodium acetate buffer (pH 5.2) to form a stock solution and kept on ice. The lipid phase was mixed with the aqueous mRNA phase inside a microfluidic chip using a NanoAssemblr® instrument (Precision Nanosystems, Vancouver, BC, Canada) according to the manufacturer's instructions to form LNP compositions comprising encapsulated mRNAs.
The average particle size diameter of the LNPs was approximately 75-150 nm.

liver cells = test: In vivo LNP delivery of firefly luciferase mRNA to liver, bioluminescent imaging (BLI); parameters: species or system BALB/C mice; details: adult female BALB/C mice; 0.5 mg/kg fLuciferase mRNA i.v.; LNP as in Example 66; BLI at 4 hr
Method: Adult female BALB/C mice (n=3/group) were intravenously administered 0.5 mg/kg of 5′-CleanCap-fLuciferase mRNA (TriLink Biotech) formulated with LNP compositions as described in Example 66. One group of mice was treated with vehicle (PBS, Thermo Fisher Scientific, USA) as a negative control.
The location and extent of luciferase expression in treated and control mice were determined at 4 hr by bioluminescent imaging (BLI) of anesthetized mice using an IVIS Lumina in vivo imaging system (Perkin Elmer) according to the manufacturer's instructions. Briefly, mice were anesthetized using isoflurane in oxygen, and placed supine on a heated stage. Mice were then administered D-luciferin (Perkin-Elmer #122799) IP, and BLI was performed.
Adult female BALB/C mice (n=3/group) were intravenously administered 0.5 mg/kg of 5′-CleanCap-fLuciferase mRNA (TriLink Biotech) formulated with the LNP compositions shown in Table 25. One group of mice was treated with vehicle (PBS, Thermo Fisher Scientific, USA) as a negative control. […]

[2] = Body weight change of mice after LNP administration; format: in vivo, BALB/C mice; details: 24 hrs after 0.5 mg/kg LNP encapsulating firefly luciferase mRNA; adult female BALB/C mice
Method: The mice above were also monitored for changes in body weight after LNP delivery. Mice were manually weighed on a scale before LNP dosage and then weighed 24 hrs after administration of 0.5 mg/kg of LNP article encapsulating Cleancap firefly luciferase mRNA. The average of weight change n=3 is reported below.
In addition, the body weight of mice treated with the LNP compositions of Table 25 was assessed prior to intravenous administration and twenty-four hours post-administration and the body weights at baseline and post-treatment were compared. The average percentage of body weight change for each group of mice treated with each LNP composition of Table 25 is shown in Table 28. […]

Compound | PDI DNA [1] | Particle Size (nm) DNA [1] | PDI RNA [1] | Particle Size (nm) RNA [1] | Ave flux (p/s) n = 3 (liver cells) | Ave weight change (gram) n = 3 [2]
CC(C)=CCC/C(C)=C/CCC1=CCC(C(=O)OCCOC(=O)CCN(CCC(=O)OCCOC(=O)C2CC=C(CC/C=C(\C)CCC=C(C)C)CC2)CC(C)N(CCC(=O)OCCOC(=O)C2CC=C(CC/C=C(\C)CCC=C(C)C)CC2)CCC(=O)OCCOC(=O)C2CC=C(CC/C=C(\C)CCC=C(C)C)CC2)CC1 (stereo not drawn) [Compound 8] | 0.167 | 319.6 nm | 0.073 | 312.8 nm | 1.10E+07 p/s | −2.53 gram
CC(C)=CCC/C(C)=C/CCC1=CCC(C(=O)OCCN(C)CCOC(=O)C2CC=C(CC/C=C(\C)CCC=C(C)C)CC2)CC1 (stereo not drawn) [Compound 32] | 0.09 | 289.2 nm | 0.108 | 269.6 nm |  | 
CCN(CCOC(=O)C1CC=C(CC/C=C(\C)CCC=C(C)C)CC1)CCOC(=O)C1CC=C(CC/C=C(\C)CCC=C(C)C)CC1 (stereo not drawn) [Compound 33] | 0.087 | 302 nm | 0.079 | 332.9 nm |  | 
CCCCN(CCOC(=O)C1CC=C(CC/C=C(\C)CCC=C(C)C)CC1)CCOC(=O)C1CC=C(CC/C=C(\C)CCC=C(C)C)CC1 (stereo not drawn) [Compound 34] | 0.128 | 290.2 nm | 0.127 | 386.4 nm |  | 
CC(C)=CCC/C(C)=C/CCC1=CCC(C(=O)OCCN(CCOC(=O)C2CC=C(CC/C=C(\C)CCC=C(C)C)CC2)C(C)(C)C)CC1 (stereo not drawn) [Compound 35] | 0.129 | 298.2 nm | 0.149 | 364.7 nm |  | 
CC(C)=CCC/C(C)=C/CCC1=CCC(C(=O)OCCN2CCN(CCOC(=O)C3CC=C(CC/C=C(\C)CCC=C(C)C)CC3)CC2)CC1 (stereo not drawn) [Compound 36] | 0.091 | 286.1 nm | 0.09 | 260.6 nm |  | 
CC(C)=CCC/C(C)=C/CCC1=CCC(C(=O)OCCOC(=O)CN(C)CC(=O)OCCOC(=O)C2CC=C(CC/C=C(\C)CCC=C(C)C)CC2)CC1 (stereo not drawn) [Compound 37] | 0.165 | 337.2 nm | 0.091 | 356.2 nm |  | 
CC(C)=CCC/C(C)=C/CCC1=CCC(C(=O)OCCN(CCOC(=O)C2CC=C(CC/C=C(\C)CCC=C(C)C)CC2)CCOC(=O)C2CC=C(CC/C=C(\C)CCC=C(C)C)CC2)CC1 (stereo not drawn) [Compound 38] | 0.208 | 398.8 nm | 0.128 | 359.7 nm |  | 
CC(C)=CCC/C(C)=C/CCC1=CCC(C(=O)CCCN(CCO)CCOC(=O)C2CC=C(CC/C=C(\C)CCC=C(C)C)CC2)CC1 (stereo not drawn) [Compound 39] | 0.138 | 272.5 nm | 0.064 | 297.1 nm |  | 
CC(C)=CCC/C(C)=C/CCC1=CCC(C(=O)OCCN(C)CCO)CC1 (stereo not drawn) [Compound 40] | 0.146 | 251.2 nm | 0.179 | 255.5 nm |  | 
CCCCCCCC/C=C\CCCCCCCC(=O)OCCN(C)CCOC(=O)C1CC=C(CC/C=C(\C)CCC=C(C)C)CC1 (stereo not drawn) [Compound 41] | 0.085 | 295.1 nm | 0.057 | 306.1 nm |  | 
CC(C)=CCCC1=CCC(C(=O)OCCN(C)CCOC(=O)C2CC=C(CCC=C(C)C)CC2)CC1 (stereo not drawn) [Compound 42] | 0.039 | 289.2 nm | 0.121 | 304.2 nm |  | 
CCN(CCOC(=O)C1CC=C(CCC=C(C)C)CC1)CCOC(=O)C1CC=C(CCC=C(C)C)CC1 (stereo not drawn) [Compound 43] | 0.185 | 286.7 nm | 0.079 | 310.1 nm |  | 
CCCCN(CCOC(=O)C1CC=C(CCC=C(C)C)CC1)CCOC(=O)C1CC=C(CCC=C(C)C)CC1 (stereo not drawn) [Compound 44] | 0.102 | 270 nm | 0.09 | 329 nm |  | 
CC(C)=CCCC1=CCC(C(=O)OCCN(CCOC(=O)C2CC=C(CCC=C(C)C)CC2)C(C)(C)C)CC1 (stereo not drawn) [Compound 45] | 0.082 | 340.4 nm | 0.131 | 356.1 nm |  | 
CC(C)=CCCC1=CCC(C(=O)OCCN2CCN(CCOC(=O)C3CC=C(CCC=C(C)C)CC3)CC2)CC1 (stereo not drawn) [Compound 46] | 0.116 | 309 nm | 0.078 | 334.6 nm |  | 
CC(C)=CCCC1=CCC(C(=O)OCCOC(=O)CN(C)CC(=O)OCCOC(=O)C2CC=C(CCC=C(C)C)CC2)CC1 (stereo not drawn) [Compound 47] | 0.223 | 357.6 nm | 0.122 | 363.7 nm |  | 
CC(C)=CCCC1=CCC(C(=O)OCCN(CCOC(=O)C2CC=C(CCC=C(C)C)CC2)CCOC(=O)C2CC=C(CCC=C(C)C)CC2)CC1 (stereo not drawn) [Compound 48] | 0.202 | 291.3 nm | 0.088 | 324.9 nm |  | 
CC(C)=CCCC1=CCC(C(=O)OCCN(CCO)CCOC(=O)C2CC=C(CCC=C(C)C)CC2)CC1 (stereo not drawn) [Compound 49] | 0.104 | 308.7 nm | 0.045 | 245.3 nm |  | 

Reference: patent US20250099383A1, “COMPOSITIONS AND METHODS FOR DELIVERY OF NUCLEIC ACIDS” (Poseida Therapeutics, Inc., priority 2022, published 2025)
